Measurements from US6573247B1, “Anti-viral pyrimidine nucleoside analogues” (University College Cardiff Consultants Limited, priority 1997, dated 2003).
Entries after “also recorded” stand apart in the source; their conditions may differ. Read-outs that look alike come from different tables or passages of the source.

Key:
[1] = tested on: varicella zoster virus (VZV) (strains OKa and YS); assay: microbe, parasite or virus in culture; format: cell-based; details: for EC50: read-out: EC50/VZV/μM; for antiviral activity with respect to varicella zoster virus (in words): verbal assessment
Description: VZV (strains OKa and YS) induced cytopathogenicity in human embryonic lung fibroblast (HEL) cells was measured 7 days post infection. EC50 was defined as the drug concentration (in μM) required to reduce virus-induced cytopathicity by 50%.
The values of EC50 and CC50 were measured as above.

[2] = tested on: human embryonic lung fibroblast (HEL) cells; assay: CC50 in tissue culture assay; format: cell-based
Description: (§1) Each of the products of Examples 1, 2, 3 and 4 was tested in vitro in tissue culture assays for potent antiviral action with respect to varicella zoster virus (VZV). Acyclovir was included in the test procedure as a control. VZV (strains OKa and YS) induced cytopathogenicity in human embryonic lung fibroblast (HEL) cells was measured 7 days post infection. EC50 was defined as the drug concentration (in μM) required to reduce virus-induced cytopathicity by 50%.
(§2) Each of the products of Examples 7 and 8 was tested in vitro in tissue culture assays for potent antiviral action with respect to varicella zoster virus (VZV). Acyclovir was included in the test procedure as a control. EC50 and CC50 values were measured as described under examples 1 to 6 above. […]

HSV-1 = details: cited from earlier work
HSV-2 = details: cited from earlier work
VZV = details: cited from earlier work
CMV = details: cited from earlier work
[3] = CC50 in tissue culture assay; format: cell-based, human; details: human
Description: as §1, §2

cytomegalovirus (CMV) = assay: CMV induced cytopathogenicity in HEL cells (in vitro tissue culture assay); format: cell-based; details: for EC50: Table IV, CMV induced cytopathogenicity in HEL cells
Description: The product of Example 8 was additionally tested in vitro in tissue culture assays for potent antiviral action with respect to cytomegalovirus (CMV). CMV induced cytopatho-genicity in human embryonic lung fibroblast (HEL) cells was measured post infection. EC50 and CC50 were defined as above for VZV. The equivalent data for the known CMV active agent dihydroxypropyl guanine (DHPG) is included in Table IV as a control.

[4] = Table II, X = O, R chain length series, concentration reducing virus-induced cytopathicity by 50%
[5] = Table I, VZV strains OKa and YS, HEL cells, 7 days post infection, concentration reducing virus-induced cytopathicity by 50%
[6] = Table III, measured as under examples 1 to 6

CCCCCCCCc1cc2cn([C@H]3C[C@H](O)[C@@H](CO)O3)c(=O)nc2[nH]1 [Example 13, 3-(2′-Deoxy-β-D-ribofuranosyl)-6-octyl,3,7-dihydro-2H-pyrrolo[2,3-d]pyrimidin-2-one]
EC50 ([1]; Table VII): 0.15 µM

O=c1nc2oc(CCCO)cc2cn1[C@H]1C[C@H](O)[C@@H](CO)O1 [Example 9, 3-(2′-Deoxy-β-D-ribofuranosyl)-6-(3-hydroxypropyl)-2,3-dihydrofuro[2,3-d]pyrimidin-2-one]
EC50 ([1]; Table V): 9.7 µM
antiviral activity with respect to varicella zoster virus (in words) [1]: low activity
CC50 [2]: > 200 µM

CCCCCc1cc2cn([C@H]3C[C@H](O)[C@@H](CO)O3)c(=O)nc2o1 [Example 5, 3-(2′-Deoxy-β-D-ribofuranosyl)-6-pentyl-2,3-dihydrofuro[2,3-d]pyrimidin-2-one]
EC50 [1, 4]: 3 µM

CCCCCCCCCCc1cc2cn([C@H]3C[C@H](O)[C@@H](CO)O3)c(=O)nc2o1 [Example 2, 3-(2′-Deoxy-β-D-ribofuranosyl)-6-decyl-2,3-dihydrofuro[2,3-d]pyrimidin-2-one]
EC50 [1, 5]: 0.005 µM
EC50 [1, 4]: 0.005 µM
antiviral activity with respect to varicella zoster virus (in words) [1]: extremely potent antiviral activity
CC50 [2]: > 50 µM

CCCCCCc1cc2cn([C@H]3C[C@H](O)[C@@H](CO)O3)c(=O)nc2[nH]1 [Example 12, 3-(2′-Deoxy-β-D-ribofuranosyl)-6-hexyl,3,7-dihydro-2H-pyrrolo[2,3-d]pyrimidin-2-one]
EC50 ([1]; Table VII): > 50 µM

O=c1nc2occc2cn1C1CC(O)C(CO)O1 (stereo not shown)
activity in in vitro assay against HSV-1 (HSV-1): inactive
activity in in vitro assay against HSV-2 (HSV-2): inactive
activity in in vitro assay against VZV (VZV): inactive
activity in in vitro assay against CMV (CMV): inactive

CCCCCCCCc1cc2cn(C3CC(O)C(CO)O3)c(=O)nc2o1 [Example 3, 3-(2′-Deoxy-β-D-ribofuranosyl)-6-octyl-2,3-dihydrofuro[2,3-d]pyrimidin-2-one]
EC50 ([1]; Human alphaherpesvirus 3, HEL, 168 h): 0.003 µM
EC50 ([1]; Human alphaherpesvirus 3, HEL): 0.03 µM
antiviral activity with respect to varicella zoster virus (in words) [1]: extremely potent antiviral activity; also recorded: antiviral activity comparable to acyclovir
CC50 [3]: > 50000 nM

O=c1nc2oc(CCCCCCCCCCl)cc2cn1C1CC(O)C(CO)O1 (stereo not shown) [Example 8, 6-(9-chlorononyl)-3-(4-hydroxy-5-(hydroxymethyl)tetrahydro-2-furanyl)-2,3-dihydrofuro[2,3,-d]pyrimidin-2-one]
EC50 [1, 6]: 0.006 µM
EC50 (cytomegalovirus (CMV)): 7.2 µM
antiviral activity with respect to CMV (in words) (cytomegalovirus (CMV); verbal assessment): comparable to DHPG

O=c1nc2oc(CCCCCCCCCO)cc2cn1[C@H]1C[C@H](O)[C@@H](CO)O1 [Example 7, 3-(2′-Deoxy-β-D-ribofuranosyl)-6-(9-hydroxynonyl)-2,3′-dihydrofuro[2,3-d]pyrimidin-2-one]
EC50 [1, 6]: 0.4 µM
CC50 [2]: > 200 µM

O=c1nc2oc(CCCCO)cc2cn1[C@H]1C[C@H](O)[C@@H](CO)O1 [Example 10, 3-(2′-Deoxy-β-D-ribofuranosyl)-6-(4-hydroxybutyl)-2,3-dihydrofuro[2,3-d]pyrimidin-2-one]
EC50 ([1]; Table V): 29 µM
antiviral activity with respect to varicella zoster virus (in words) [1]: low activity
CC50 [2]: > 200 µM

CCCCCCCc1cc2cn([C@H]3C[C@H](O)[C@@H](CO)O3)c(=O)nc2o1 [Example 6, 3-(2′-Deoxy-β-D-ribofuranosyl)-6-heptyl-2,3-dihydrofuro[2,3-d]pyrimidin-2-one]
EC50 [1, 4]: 0.17 µM

CCCCCCCCCCCCc1cc2cn([C@H]3C[C@H](O)[C@@H](CO)O3)c(=O)nc2o1 [Example 1, 3-(2′-Deoxy-β-D-ribofuranosyl)-6-dodecyl-2,3dihydrofuro[2,3-d]pyrimidin-2-one]
EC50 [1, 5]: ≤ 1.2 µM
EC50 [1, 4]: ≤ 1.2 µM
antiviral activity with respect to varicella zoster virus (in words) [1]: antiviral activity comparable to acyclovir
CC50 ([2]; Table I, read-out: CC50/μM): > 200 µM

CCCCCCc1cc2cn([C@H]3C[C@H](O)[C@@H](CO)O3)c(=O)nc2o1 [Example 4, 3-(2′-Deoxy-β-D-ribofuranosyl)-6-hexyl-2,3-dihydrofuro[2,3-d]pyrimidin-2-one]
EC50 [1, 5]: 1.3 µM
EC50 [1, 4]: 1.3 µM
CC50 [2]: > 200 µM

CCCCCCCCCCCCc1cc2cn([C@H]3C[C@H](O)[C@@H](CO)O3)c(=O)nc2[nH]1 [Example 14, 3-(2′-Deoxy-β-D-ribofuranosyl)-6-dodecyl-3,7-dihydro-2H-pyrollo[2,3-d]pyrimidin-2-one]
EC50 ([1]; Table VII): 3.7 µM
CC50 [2]: > 200 µM

Nc1nc2c(ncn2COCCO)c(=O)[nH]1 [Acyclovir, reference compound]
CC50 [3]: > 100000 nM
CC50 ([2]; human): > 100 µM

Nc1nc2c(ncn2COC(CO)CO)c(=O)[nH]1 [DHPG, dihydroxypropyl guanine, reference compound]
CC50 [2]: > 200 µM
EC50 (cytomegalovirus (CMV)): 3.1 µM
